# In publication PMC9784828, “Antimicrobial Activity of Peptide-Coupled Antisense Peptide Nucleic Acids in Streptococcus pneumoniae” (Microbiology Spectrum, 2022):
# Tested on: G. mellonella larvae infected with S. pneumoniae TIGR4
# Assay: G. mellonella infection model, bacterial load
# Assay type: in vivo, Galleria mellonella
# Settings: 10 nmol CPP-PNA/larva; 24 h postinfection; n = 4 larvae per group, three experiments
# Experimental: To establish the antibacterial effect of PNAs in the invertebrate infection model, we assessed the bacterial loads in infected larvae (Fig. 6). Larvae were infected and subsequently treated with NaCl (mock), 10 nmol CPP-PNA, or levofloxacin (positive control), respectively. From each group, four larvae were homogenized at 24 h postinfection. CFU/larva were determined following serial dilutions of the suspension and plating on selective medium. Treatment with (RXR)4XB-anti-gyrA caused a log CFU reduction of 1 compared to that in the mock-treated larvae. The addition of 1 or 10 μg levofloxacin led to a log CFU reduction of 2 or 6, respectively.
# For determination of bacterial load, larvae were infected and subsequently treated with NaCl (mock), CPP-PNAs, or levofloxacin (positive control). At 24 h after infection, larvae were homogenized. Following serial dilution, the suspension was plated on selective medium (BD Columbia CNA Agar with 5% sheep blood; Becton Dickinson GmbH, Heidelberg, Germany). Agar plates were incubated overnight at 37°C, 5% CO2. CFU/larva was determined by visual inspection. Colony identity was verified on a random basis by colony PCR using ply-specific primers.
substance,measurement,value
"RXRRXRRXRRXRXB-eg-tgcattaata [(RXR)4XB-anti-gyrA PNA, (RXR)4XB peptide coupled to antisense PNA against gyrA]",log CFU reduction of bacterial load compared to mock-treated larvae,1
